# According to PubChem BioAssay (NCI):
#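 Method: 48-hour compound exposure of cells in 96-well plates, five concentrations, linear interpolation of endpoints. GI50 is the concentration that inhibits growth by half. Definition used: TGI = concentration required for complete inhibition of growth.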
# Key:
# Assay in all cases: NCI anticancer screen, dose series, 48 h
# [1] = system: 786-0 renal
# [2] = system: A498 renal
# [3] = system: CAKI-1 renal
# [4] = system: MOLT-4 leukemia
# [5] = system: OVCAR-4 ovarian
# [6] = system: OVCAR-8 ovarian
# [7] = system: SF-295 CNS
# [8] = system: SK-MEL-5 melanoma
# [9] = system: U251 CNS
# [10] = system: NCI-H226 lung
Structure (SMILES),TGI [1] [µM],TGI [2] [µM],TGI [3] [µM],TGI [4] [µM],TGI [5] [µM],TGI [6] [µM],TGI [7] [µM],TGI [8] [µM],TGI [9] [µM],TGI [10] [µM],GI50 [1] [µM],GI50 [2] [µM],GI50 [3] [µM],GI50 [4] [µM],GI50 [5] [µM],GI50 [6] [µM],GI50 [7] [µM],GI50 [8] [µM],GI50 [9] [µM]
N/C(=N\N=C=C1C(=O)Nc2ccc(F)cc21)NO,> 100,> 100,> 100,> 100,> 100,> 100,> 100,> 100,> 100,,,,,,,,,,
COC1C2c3ccccc3C(C#N)(Cc3ccc4c(c32)OCO4)N1C(=O)c1ccccc1 (stereo not drawn),> 100,,,> 100,,> 100,> 100,31.5,> 100,85.9,,,,,,,,,
COc1ccc(C(=O)Nc2ccccc2C#N)cc1,> 100,> 100,> 100,,> 100,> 100,> 100,> 100,> 100,,,,,,,,,,
COc1cc2c(c(Br)c1N)-c1cc(Br)c(N)cc1C2=O,> 100,> 100,> 100,> 100,> 100,> 100,> 100,> 100,> 100,,> 100,> 61.7,> 100,> 100,1.77,4.9,> 100,5.39,4.58
CCOC(=O)c1c(-c2ccccc2)[nH]c2ccccc2c1=O,> 100,> 100,> 100,> 100,> 100,> 100,> 100,> 100,> 100,,,,,,,,,,
CC[C@]12C=CCN3CC[C@]4(C(=C(C(=O)OC)C1)Nc1ccccc14)[C@@H]32,15.6,20.2,17.3,14.7,17.5,> 100,26.6,16.8,16.4,,3.66,7.12,4.7,3.16,4.4,3.75,13,4.87,3.64
Cc1cc2c(C)nn(Cc3ccc(Cl)cc3Cl)c2c(C#N)c1C,> 100,,,> 100,,> 100,> 100,,> 100,> 100,,,,,,,,,
CCOC(=O)C12CN(C34CC5CC(CC(C5)C3)C4)CC(C(=O)OCC)(C1=O)C(c1ccccc1)OC2c1ccccc1 (stereo not drawn),> 100,> 100,,> 100,> 100,> 100,> 100,> 100,> 100,> 100,,,,,,,,,
COC(=O)C1(C)CCc2c(ccc3ccccc23)C1=O (stereo not drawn),> 100,81,41.6,> 100,,> 100,> 100,35.9,> 100,,,,,,,,,,
CCCCCNC(=O)C1C(=O)N(CCCCC)C(=O)/C1=N\N (stereo not drawn),> 100,> 100,,> 100,> 100,> 100,> 100,> 100,> 100,,,,,,,,,,
NC(=NCc1ccccc1)N/N=C\c1ccnc2ccccc12,29.9,25.2,,46,33,29.9,32.2,20,36.6,38.6,,,,,,,,,
COC(=O)C12C3C=CC(O3)C1C1C=CC2O1 (stereo not drawn),> 100,,,> 100,,> 100,> 100,> 100,> 100,> 100,,,,,,,,,
COC(=O)C1(c2ccc(OC)cc2)NC(c2ccccc2)C2C(=O)N(c3ccc(OC)cc3)C(=O)C21 (stereo not drawn),> 100,> 100,> 100,> 100,> 100,> 100,> 100,> 100,> 100,,,,,,,,,,
CNS(=O)(=O)NN(C)S(=O)(=O)c1ccc(C)cc1,> 100,> 100,> 100,> 100,> 100,> 100,> 100,> 100,,,,,,,,,,,
O=C1/C(=C/c2ccccc2Cl)COc2ccccc21,28.5,32.4,,68.1,,33.4,37.6,,26.9,,,,,,,,,,
CC1(C)CC(C2CC(C)(C)CC(C)(C)[C@H]2O)[C@@H](O)C(C)(C)C1 (stereo partly drawn),> 100,,,> 100,,> 100,> 100,> 100,> 100,> 100,,,,,,,,,
Nc1ccc(C(=O)O)c2[nH]c3ccccc3c(=O)c12,> 100,> 100,> 100,> 100,> 100,> 100,> 100,> 100,> 100,,,,,,,,,,
Cc1ccc(C)c(NC(=O)CCC(=O)CC(=O)C(C)(C)C)c1,> 100,> 100,> 100,> 100,> 100,> 100,,> 100,> 100,,,,,,,,,,
